Data published in US9944666B2, “Compounds that are S1P modulating agents and/or ATX modulating agents” (BIOGEN MA INC., priority 2012, dated 2018).

These compounds were tested against T1, Human ATX protein (Homo sapiens, UniProt Q13822) (assay: ATX biochemical FRET assay with FS-3 substrate). Conditions: FS-3 2 μM, ATX 1.0 μg/mL, room temperature 2 hours, fluorescence 485/538 nm.
T1 construct: made in house
Summary of the method: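 Purified human ATX (1.0 μg/mL final) preincubated with compound 30 min at room temperature in Tris pH 7.4 buffer with NaCl, KCl, CaCl2, MgCl2 and 1 mg/mL fatty acid-free BSA. FS-3 added to 2 μM final; 2 h at room temperature in the dark, fluorescence at ex 485/em 538 nm.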
Compound `CC(c1ccc2c(C(F)(F)F)c(O[C@H]3CC[C@@H](C(C)(F)F)CC3)ccc2c1)N1C2CCCC1CC(C(=O)O)C2` (stereo partly drawn) [Example 217, 9-(1-(6-((cis-4-(1,1-difluoroethyl)cyclohexyl)oxy)-5-(trifluoromethyl)naphthalen-2-yl)ethyl)-9-azabicyclo[3.3.1]nonane-3-carboxylic acid] has an IC50 of no more than 100 nM. `C[C@H]1CC[C@@H](Oc2ccc3cc(C(=O)N4C5CCCC4CC(C(=O)O)C5)ccc3c2C#N)CC1` (stereo partly drawn) [Example 218, 9-(5-cyano-6-((cis-4-methylcyclohexyl)oxy)-2-naphthoyl)-9-azabicyclo[3.3.1]nonane-3-carboxylic acid] gave an IC50 of no more than 100 nM. Work on `C[C@H]1CC[C@@H](Oc2ccc3cc(C(=O)N4C5CCC4CC(C(=O)O)C5)ccc3c2C#N)CC1` (stereo partly drawn) [Example 219, 8-(5-cyano-6-((cis-4-methylcyclohexyl)oxy)-2-naphthoyl)-8-azabicyclo[3.2.1]octane-3-carboxylic acid] yielded an IC50 of no more than 100 nM. With `CCC(c1ccc2c(C#N)c(O[C@H]3CC[C@@H](CC)CC3)ccc2c1)N1C2CCC1CC(C(=O)O)C2` (stereo partly drawn) [Example 220, 8-(1-(5-cyano-6-((cis-4-ethylcyclohexyl)oxy)naphthalen-2-yl)propyl)-8-azabicyclo[3.2.1]octane-3-carboxylic acid] the IC50 was no more than 100 nM. With `CC[C@H]1CC[C@@H](Oc2ccc3cc(C(=O)N4C5CCCC4CC(C(=O)O)C5)ccc3c2C#N)CC1` (stereo partly drawn) [Example 221, 9-(5-cyano-6-((cis-4-ethylcyclohexyl)oxy)-2-naphthoyl)-9-azabicyclo[3.3.1]nonane-3-carboxylic acid] the IC50 was no more than 100 nM. Work on `CC[C@H]1CC[C@@H](Oc2ccc3cc(C(=O)N4C5CCC4CC(C(=O)O)C5)ccc3c2C(F)(F)F)CC1` (stereo partly drawn) [Example 222, 8-(6-((cis-4-ethylcyclohexyl)oxy)-5-(trifluoromethyl)-2-naphthoyl)-8-azabicyclo[3.2.1]octane-3-carboxylic acid] yielded an IC50 of no more than 100 nM. `CC[C@H]1CC[C@@H](Oc2ccc3cc(C(=O)N4C5CCC4CC(C(=O)O)C5)ccc3c2C#N)CC1` (stereo partly drawn) [Example 223, 8-(5-cyano-6-((cis-4-ethylcyclohexyl)oxy)-2-naphthoyl)-8-azabicyclo[3.2.1]octane-3-carboxylic acid] was tested, and the IC50 was no more than 100 nM. Work on `CC[C@H]1CC[C@@H](Oc2ccc3cc(C(=O)N4C5CCCC4CC(C(=O)O)C5)ccc3c2C(F)(F)F)CC1` (stereo partly drawn) [Example 224, 9-(6-((cis-4-ethylcyclohexyl)oxy)-5-(trifluoromethyl)-2-naphthoyl)-9-azabicyclo[3.3.1]nonane-3-carboxylic acid] yielded an IC50 of no more than 100 nM. Work on `CC(c1ccc2c(C#N)c(O[C@H]3CC[C@@H](C)CC3)ccc2c1)N1C2CCCC1CC(C(=O)O)C2` (stereo partly drawn) [Example 225, 9-(1-(5-cyano-6-((cis-4-methylcyclohexyl)oxy)naphthalen-2-yl)ethyl)-9-azabicyclo[3.3.1]nonane-3-carboxylic acid] yielded an IC50 of no more than 100 nM. `CCC(c1ccc2c(C#N)c(O[C@H]3CC[C@@H](C)CC3)ccc2c1)N1C2CCC1CC(C(=O)O)C2` (stereo partly drawn) [Example 226, 8-(1-(5-cyano-6-((cis-4-methylcyclohexyl)oxy)naphthalen-2-yl)propyl)-8-azabicyclo[3.2.1]octane-3-carboxylic acid] showed an IC50 of no more than 100 nM. Compound `CC[C@H]1CC[C@@H](Oc2ccc3cc(C(=O)N4C5CCCC4CC(C(=O)O)C5)ccc3c2Cl)CC1` (stereo partly drawn) [Example 227, 9-(5-chloro-6-((cis-4-ethylcyclohexyl)oxy)-2-naphthoyl)-9-azabicyclo[3.3.]nonane-3-carboxylic acid] has an IC50 of no more than 100 nM. `CC(c1ccc2c(C#N)c(O[C@H]3CC[C@@H](C(F)(F)F)CC3)ccc2c1)N1C2CCCC1CC(C(=O)O)C2` (stereo partly drawn) [Example 228, 9-(1-(5-cyano-6-(((1s,4s)-4-(trifluoromethyl)cyclohexyl)oxy)naphthalen-2-yl)ethyl)-9-azabicyclo[3.3.1]nonane-3-carboxylic acid] showed an IC50 of no more than 100 nM.
